The source of these data is PMC5908784, “Extracellular loops 2 and 3 of the calcitonin receptor selectively modify agonist binding and efficacy” (Biochemical Pharmacology, 2018).

What all share (test): cAMP accumulation
What all share (type): cell-based

The target in one assay is T1, hCTR P360A (Homo sapiens, UniProt P30988, P360A).
T1 construct: expressed in transfected cells
T1 sequence (P30988 25-474 P360A): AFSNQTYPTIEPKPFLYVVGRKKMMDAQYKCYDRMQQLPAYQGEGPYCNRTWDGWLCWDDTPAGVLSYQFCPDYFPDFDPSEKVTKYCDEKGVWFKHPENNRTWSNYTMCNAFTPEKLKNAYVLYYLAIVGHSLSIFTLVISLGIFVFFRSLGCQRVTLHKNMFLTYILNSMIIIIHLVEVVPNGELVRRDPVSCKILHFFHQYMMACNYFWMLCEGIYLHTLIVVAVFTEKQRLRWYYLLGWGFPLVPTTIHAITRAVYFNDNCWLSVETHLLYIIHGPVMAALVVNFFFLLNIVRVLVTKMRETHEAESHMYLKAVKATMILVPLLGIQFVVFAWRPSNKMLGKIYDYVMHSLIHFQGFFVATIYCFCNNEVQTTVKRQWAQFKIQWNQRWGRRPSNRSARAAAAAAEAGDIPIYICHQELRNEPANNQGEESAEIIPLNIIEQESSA
The settings on record: mean ± S.E.M.; for Emax: cAMP maximal response, SEM; for EC50: cAMP, CV1-FlpIn cells, 30 min, IBMX. The procedure, abridged: (§1)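 Cells expressing the receptor mutant were seeded overnight, then stimulated with increasing ligand concentrations for 30 min in the presence of IBMX. After ethanol extraction and drying at room temperature, cAMP was measured and normalized to the 100 μM forskolin response. EC50 and Emax came from 3-parameter logistic fits.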

A further assay addresses T2, hCTR F359A (Homo sapiens, UniProt P30988, F359A).
T2 construct: expressed in transfected cells
T2 sequence (P30988 25-474 F359A): T1 sequence (P30988 25-474 P360A) with F335A, A336P
The settings on record: mean ± S.E.M.; for Emax: cAMP maximal response, SEM; for EC50: cAMP, CV1-FlpIn cells, 30 min, IBMX. In outline:
as §1

The next assay concerns the target T3, hCTR K366A (Homo sapiens, UniProt P30988, K366A).
T3 construct: c-Myc (N); expressed in transfected cells
T3 sequence (P30988 25-474 K366A): T1 sequence (P30988 25-474 P360A) with A336P, K342A
The settings on record: mean ± S.E.M.; for Emax: cAMP maximal response, SEM; for EC50: cAMP, CV1-FlpIn cells, 30 min, IBMX. In outline: as §1

For a further assay, the target named is T4, hCTR C289A (Homo sapiens, UniProt P30988, C289A).
T4 construct: c-Myc (N); expressed in transfected cells
T4 sequence (P30988 25-474 C289A): T1 sequence (P30988 25-474 P360A) with C265A, A336P
The settings on record: mean ± S.E.M.; for Emax: cAMP maximal response, SEM. The procedure, abridged:
as §1

The next assay concerns the target T5, hCTR L298A (Homo sapiens, UniProt P30988, L298A).
T5 construct: c-Myc (N); expressed in transfected cells
T5 sequence (P30988 25-474 L298A): T1 sequence (P30988 25-474 P360A) with L274A, A336P
The settings on record: mean ± S.E.M.; for Emax: cAMP maximal response, SEM; for EC50: cAMP, CV1-FlpIn cells, 30 min, IBMX. The procedure, abridged:
as §1

Numbering of substitutions follows the chain as printed. Where a SMILES comes first, the peptide text is derived from it. Bridges are numbered along the chain shown (N, C = ends).

For the compound `CC(C)C[C@H](NC(=O)[C@H](CCCCN)NC(=O)CNC(=O)[C@H](CC(C)C)NC(=O)[C@@H](NC(=O)[C@@H]1CSSC[C@H](N)C(=O)N[C@@H](CO)C(=O)N[C@@H](CC(N)=O)C(=O)N[C@@H](CC(C)C)C(=O)N[C@@H](CO)C(=O)N[C@@H]([C@@H](C)O)C(=O)N1)C(C)C)C(=O)N[C@@H](CO)C(=O)N[C@@H](CCC(N)=O)C(=O)N[C@@H](CCC(=O)O)C(=O)N[C@@H](CC(C)C)C(=O)N[C@@H](Cc1c[nH]cn1)C(=O)N[C@@H](CCCCN)C(=O)N[C@@H](CC(C)C)C(=O)N[C@@H](CCC(N)=O)C(=O)N[C@H](C(=O)N[C@@H](Cc1ccc(O)cc1)C(=O)N1CCC[C@H]1C(=O)N[C@@H](CCCNC(=N)N)C(=O)N[C@H](C(=O)N[C@@H](CC(N)=O)C(=O)N[C@H](C(=O)NCC(=O)N[C@@H](CO)C(=O)NCC(=O)N[C@H](C(=O)N1CCC[C@H]1C(N)=O)[C@@H](C)O)[C@@H](C)O)[C@@H](C)O)[C@@H](C)O` [sCT], the maximal effect (Emax) at hCTR P360A turned out to be 100 ± 5%; at hCTR F359A, 84 ± 4%; at hCTR K366A, 81 ± 5%; on hCTR C289A, 140 ± 7%; on hCTR L298A it was 112 ± 9%.

For the compound `CSCC[C@H](NC(=O)CNC(=O)[C@H](CO)NC(=O)[C@H](Cc1ccccc1)NC(=O)[C@H](CCCNC(=N)N)NC(=O)[C@H](Cc1c[nH]cn1)NC(=O)[C@H](Cc1ccccc1)NC(=O)[C@H](CC(N)=O)NC(=O)[C@H](CC(N)=O)NC(=O)[C@H](CC(C)C)NC(=O)[C@H](CC(N)=O)NC(=O)[C@H](CCCNC(=N)N)NC(=O)[C@H](Cc1c[nH]c2ccccc12)NC(=O)[C@H](Cc1ccc(O)cc1)NC(=O)[C@H](C)NC(=O)[C@H](CO)NC(=O)[C@H](CC(C)C)NC(=O)[C@@H](NC(=O)[C@@H]1CSSC[C@H](N)C(=O)N[C@@H](CO)C(=O)N[C@@H](CC(N)=O)C(=O)N[C@@H](CC(C)C)C(=O)N[C@@H](CO)C(=O)N[C@@H]([C@@H](C)O)C(=O)N1)C(C)C)C(=O)NCC(=O)N[C@@H](Cc1ccccc1)C(=O)NCC(=O)N1CCC[C@H]1C(=O)N[C@@H](CCC(=O)O)C(=O)N[C@H](C(=O)N1CCC[C@H]1C(N)=O)[C@@H](C)O` [pCT] (H-CSNLSTCVLSAYWRNLNNFHRFSGMGFGPETP-NH2; disulfide 1-7), the Emax was determined as 146 ± 13% on hCTR P360A; 113 ± 8% on hCTR F359A; 80 ± 8% at hCTR K366A; 115 ± 7% on hCTR C289A; 118 ± 7% at hCTR L298A. Further, the 50% effective concentration (EC50) on hCTR P360A is 0.132 nM; at hCTR F359A, 0.162 nM; on hCTR K366A it was 0.02 nM; at hCTR C289A (cAMP, CV1-FlpIn cells, 30 min, IBMX), 1.02 nM; at hCTR L298A, 0.0631 nM.

Consider `CC(C)C[C@H](NC(=O)[C@H](CC(N)=O)NC(=O)[C@H](CC(N)=O)NC(=O)[C@H](CO)NC(=O)[C@H](CO)NC(=O)[C@H](CCCNC(=N)N)NC(=O)[C@@H](NC(=O)[C@H](CC(C)C)NC(=O)[C@H](Cc1ccccc1)NC(=O)[C@H](CC(N)=O)NC(=O)[C@H](C)NC(=O)[C@H](CC(C)C)NC(=O)[C@H](CCCNC(=N)N)NC(=O)[C@H](CCC(N)=O)NC(=O)[C@@H](NC(=O)[C@H](C)NC(=O)[C@@H]1CSSC[C@H](NC(=O)[C@@H](N)CCCCN)C(=O)N[C@@H](CC(N)=O)C(=O)N[C@@H]([C@@H](C)O)C(=O)N[C@@H](C)C(=O)N[C@@H]([C@@H](C)O)C(=O)N1)[C@@H](C)O)C(C)C)C(=O)NCC(=O)N1CCC[C@H]1C(=O)N[C@H](C(=O)N[C@@H](CC(C)C)C(=O)N1CCC[C@H]1C(=O)N1CCC[C@H]1C(=O)N[C@H](C(=O)N[C@@H](CC(N)=O)C(=O)N[C@H](C(=O)NCC(=O)N[C@@H](CO)C(=O)N[C@@H](CC(N)=O)C(=O)N[C@H](C(=O)N[C@@H](Cc1ccc(O)cc1)C(N)=O)[C@@H](C)O)C(C)C)[C@@H](C)O)C(C)C` [rAmy], for which the Emax on hCTR P360A was 115 ± 13%; at hCTR F359A it was 95 ± 9%; on hCTR K366A it was 71 ± 7%; at hCTR C289A, 89 ± 23%; at hCTR L298A, 117 ± 13%.

For `CC(C)C[C@H](NC(=O)CNC(=O)[C@H](C)NC(=O)[C@H](CC(C)C)NC(=O)[C@H](CCCNC(=N)N)NC(=O)[C@H](Cc1cnc[nH]1)NC(=O)[C@@H](NC(=O)[C@@H](NC(=O)[C@@H]1CSSC[C@H](NC(=O)[C@H](C)N)C(=O)N[C@@H](CC(=O)O)C(=O)N[C@@H]([C@@H](C)O)C(=O)N[C@@H](C)C(=O)N[C@@H]([C@@H](C)O)C(=O)N1)C(C)C)[C@@H](C)O)C(=O)N[C@@H](CC(C)C)C(=O)N[C@@H](CO)C(=O)N[C@@H](CCCNC(=N)N)C(=O)N[C@@H](CO)C(=O)NCC(=O)NCC(=O)N[C@H](C(=O)N[C@H](C(=O)N[C@@H](CCCCN)C(=O)N[C@@H](CC(N)=O)C(=O)N[C@@H](CC(N)=O)C(=O)N[C@@H](Cc1ccccc1)C(=O)N[C@H](C(=O)N1CCC[C@H]1C(=O)N[C@H](C(=O)N[C@@H](CC(N)=O)C(=O)N[C@H](C(=O)NCC(=O)N[C@@H](CO)C(=O)N[C@@H](CCCCN)C(=O)N[C@@H](C)C(=O)N[C@@H](Cc1ccccc1)C(N)=O)C(C)C)[C@@H](C)O)C(C)C)C(C)C)C(C)C` [hαCGRP], the Emax was 48 ± 5% at hCTR P360A, 53 ± 8% at hCTR F359A, 73 ± 13% on hCTR K366A and 109 ± 17% on hCTR L298A. In addition, the EC50 on hCTR P360A was 17.4 nM; on hCTR F359A, 18.6 nM; at hCTR K366A, 5.37 nM; at hCTR L298A, 33.9 nM.

Turning to `CC[C@H](C)[C@H](NC(=O)[C@H](C)NC(=O)[C@@H](NC(=O)[C@H](CCC(N)=O)NC(=O)[C@@H]1CCCN1C(=O)[C@H](Cc1ccccc1)NC(=O)[C@@H](NC(=O)[C@H](Cc1c[nH]cn1)NC(=O)[C@H](Cc1ccccc1)NC(=O)[C@H](CCCCN)NC(=O)[C@H](CC(N)=O)NC(=O)[C@H](Cc1ccccc1)NC(=O)[C@H](CC(=O)O)NC(=O)[C@H](CCC(N)=O)NC(=O)[C@@H](NC(=O)[C@H](Cc1ccc(O)cc1)NC(=O)[C@@H](NC(=O)CNC(=O)[C@H](CC(C)C)NC(=O)[C@H](CCSC)NC(=O)[C@@H]1CSSC[C@H](N)C(=O)NCC(=O)N[C@@H](CC(N)=O)C(=O)N[C@@H](CC(C)C)C(=O)N[C@@H](CO)C(=O)N[C@@H]([C@@H](C)O)C(=O)N1)[C@@H](C)O)[C@@H](C)O)[C@@H](C)O)[C@@H](C)O)C(=O)NCC(=O)N[C@H](C(=O)NCC(=O)N[C@@H](C)C(=O)N1CCC[C@H]1C(N)=O)C(C)C` [hCT], the Emax turned out to be 152 ± 8% at hCTR P360A; 130 ± 9% at hCTR F359A; 74 ± 3% at hCTR K366A; 148 ± 7% on hCTR C289A; 103 ± 6% on hCTR L298A.
